{"source": "patent US10550143B2", "about": "“C,O-spiro aryl glycoside compounds, preparation therefor and use thereof” (SHANGHAI INSTITUTE OF MATERIA MEDICA, CHINESE ACADEMY OF …, priority 2015, dated 2020)", "assay_type_in_all_cases": "in vivo, mouse", "key": {"db/db mice [1]": {"tested_on": "db/db mice", "assay": "Acute administration at multiple doses, random blood glucose in db/db mice", "details": "for Blood glucose level 0 h: before administration", "experimental": "(1) 127 db/db mice (half male and half female) entered the animal laboratory of the institute at 7 weeks of age and were grouped at 10 weeks of age. Random blood glucose and random body weight of all db/db mice were determined at 9:00 am, and then fasted for 6 hours (free drinking). Fasting blood glucose and fasting body weight were determined, and blood was collected (10 μl EDTA+20 μl tail blood, centrifugated to collect supernatant) to determine the insulin content. […] The db/db mice were once orally administered at a dose of 10 mL/kg. Blood glucose levels were measured before administration, and at 1 h, 2 h, 3 h, 4 h, 6 h after administration, and the administration times and body weights were recorded. Mice took food and water freely during the experiment.\nAverage hypoglycemic rate %=(model control group−administration group)/(model control group−blank control group)*100%"}, "db/db mice [2]": {"tested_on": "db/db mice", "assay": "Chronic administration, oral glucose tolerance in db/db mice", "details": "glucose tolerance, chronic administration; for AUC0-2 h reduction rate (%): vs vehicle", "experimental": "(§1) Oral gavage administrated, daily dose volume was 10 mL/kg, administered once daily. Administration time was 9: 00-10:00 daily, and the administration period was 5 weeks.\nThe glucose tolerance of mice of normal control group, model control group, test substance group and positive control group were determined 3 weeks after administration of drug, oral administrated with 1.5 g/kg of glucose, and taken 2 μL of blood on the tail. 4 μL of normal saline was added to 96 well sharp bottom plate to dilute evenly, and then the blood glucose was measured. The blood glucose levels before the sugar administration and at 15, 30, 60, 90 and 120 min after the sugar administration were measured. The true blood glucose level was calculated and the area under the blood glucose curve within 120 min was calculated by the following formula: AUC0-2h (mmol/L·h)=(BG0+BG15)×0.25/2+(BG15+BG30)×0.25/2+(BG30+BG60)×0.5/2+(BG60+[…])×1.0/2 Note: BG0, BG15, BG30, BG60 and BG120 represent the blood glucose levels before the sugar administration, and at 15, 30, 60, and 120 min after sugar administration, respectively. Average hypoglycemic rate %=(solvent control group AUC0-2h−administration group AUC0-2h)/solvent control group AUC0-2h*100%"}, "C57BL/6J mice": {"tested_on": "C57BL/6J mice", "assay": "Acute administration of A28 at multiple doses, urinary glucose of C57BL/6J mice", "details": "24 h urine", "experimental": "(1) 90 normal male C57BL/6J mice were selected and randomly divided into 9 groups according to body weight and blood glucose, 10 in each group. […] After oral gavage, the mice were placed in rats (mice) metabolic cages, […] and urine was collected after 24 h, and the urine volume was recorded, then preserved under −20° C. Rats take food and water freely during the experimental period.\n(2) Index Determination: Glucose levels in urine are measured by the glucose assay kit."}, "db/db mice [3]": {"tested_on": "db/db mice", "assay": "Chronic administration, fasting blood glucose in db/db mice", "details": "for fasting blood glucose Pre: before administration; for Hypoglycemic rate % week 1 / Hypoglycemic rate % week 2 / Hypoglycemic rate % week 3 / Hypoglycemic rate % week 4: fasting blood glucose", "experimental": "as §1\nThe random blood glucose of mice in the normal control group, model control group, test substance administration group and positive control group were determined on the 7th, 14th, 21st, 28th day (9: 00-10:00) every week after the first administration, and food was removed and after 6 hours of starvation, the fasting blood glucose in each group was measured. Free drinking during the hunger process. The rate of decrease of blood glucose was calculated according to the following formula: Average hypoglycemic rate %=(Blood glucose of model control group−Blood glucose of administration group)/Model control group×100%"}}, "note": "Marks after values point to notes of the source that are not given here."}
{"smiles": "CCOc1ccc(Cc2cc([C@@H]3O[C@H](CO)[C@@H](O)[C@H](O)[C@H]3O)ccc2Cl)cc1", "note": "[Dapa]", "values": [{"measurement": "AUC0-6 h", "setting": "db/db mice [1]; single oral 1 mg/kg", "result": "67.8 ± 2.5", "unit": "mmol·h/L"}, {"measurement": "Blood glucose level 1 h", "setting": "db/db mice [1]; single oral 1 mg/kg", "result": "13.0 ± 0.7", "unit": "mmol/L"}, {"measurement": "Blood glucose level 2 h", "setting": "db/db mice [1]; single oral 1 mg/kg", "result": "11.4 ± 0.6", "unit": "mmol/L"}, {"measurement": "Blood glucose level 3 h", "setting": "db/db mice [1]; single oral 1 mg/kg", "result": "10.2 ± 0.6", "unit": "mmol/L"}, {"measurement": "Blood glucose level 4 h", "setting": "db/db mice [1]; single oral 1 mg/kg", "result": "9.8 ± 0.7", "unit": "mmol/L"}, {"measurement": "Blood glucose level 6 h", "setting": "db/db mice [1]; single oral 1 mg/kg", "result": "8.8 ± 0.6", "unit": "mmol/L"}, {"measurement": "Blood glucose level 0 h", "setting": "db/db mice [1]; single oral 1 mg/kg", "result": "19.3 ± 1.3", "unit": "mmol/L"}, {"measurement": "AUC0-6 h", "setting": "db/db mice [1]; single oral 3 mg/kg", "result": "59.7 ± 1.7", "unit": "mmol·h/L"}, {"measurement": "Blood glucose level 1 h", "setting": "db/db mice [1]; single oral 3 mg/kg", "result": "11.8 ± 0.5", "unit": "mmol/L"}, {"measurement": "Blood glucose level 2 h", "setting": "db/db mice [1]; single oral 3 mg/kg", "result": "8.5 ± 0.4", "unit": "mmol/L"}, {"measurement": "Blood glucose level 3 h", "setting": "db/db mice [1]; single oral 3 mg/kg", "result": "8.6 ± 0.5", "unit": "mmol/L"}, {"measurement": "Blood glucose level 4 h", "setting": "db/db mice [1]; single oral 3 mg/kg", "result": "8.5 ± 0.3", "unit": "mmol/L"}, {"measurement": "Blood glucose level 6 h", "setting": "db/db mice [1]; single oral 3 mg/kg", "result": "9.4 ± 0.7", "unit": "mmol/L"}, {"measurement": "Blood glucose level 0 h", "setting": "db/db mice [1]; single oral 3 mg/kg", "result": "17.5 ± 1.3", "unit": "mmol/L"}, {"measurement": "Blood glucose AUC0-2 h", "setting": "db/db mice [2]; dose 1 mg/kg", "result": "7.9 ± 1.7"}, {"measurement": "Blood glucose (mmol/L) 0 min", "setting": "db/db mice [2]; dose 1 mg/kg", "result": "10.0 ± 1.0", "unit": "mmol/L"}, {"measurement": "Blood glucose (mmol/L) 15 min", "setting": "db/db mice [2]; dose 1 mg/kg", "result": "19.9 ± 1.0", "unit": "mmol/L"}, {"measurement": "Blood glucose (mmol/L) 30 min", "setting": "db/db mice [2]; dose 1 mg/kg", "result": "20.3 ± 1.1", "unit": "mmol/L"}, {"measurement": "Blood glucose (mmol/L) 60 min", "setting": "db/db mice [2]; dose 1 mg/kg", "result": "11.1 ± 0.5", "unit": "mmol/L"}, {"measurement": "Blood glucose (mmol/L) 90 min", "setting": "db/db mice [2]; dose 1 mg/kg", "result": "10.8 ± 0.4* * mmol/L"}, {"measurement": "Blood glucose (mmol/L) 120 min", "setting": "db/db mice [2]; dose 1 mg/kg", "result": "11.8 ± 0.5* * mmol/L"}, {"measurement": "AUC0-2 h reduction rate (%)", "setting": "db/db mice [2]; dose 1 mg/kg", "result": 48.9, "unit": "%"}, {"measurement": "Blood glucose AUC0-2 h", "setting": "db/db mice [2]; dose 3 mg/kg", "result": "9.4 ± 1.7"}, {"measurement": "Blood glucose (mmol/L) 0 min", "setting": "db/db mice [2]; dose 3 mg/kg", "result": "8.6 ± 0.4", "unit": "mmol/L"}, {"measurement": "Blood glucose (mmol/L) 15 min", "setting": "db/db mice [2]; dose 3 mg/kg", "result": "19.0 ± 1.2", "unit": "mmol/L"}, {"measurement": "Blood glucose (mmol/L) 30 min", "setting": "db/db mice [2]; dose 3 mg/kg", "result": "20.2 ± 1.8", "unit": "mmol/L"}, {"measurement": "Blood glucose (mmol/L) 60 min", "setting": "db/db mice [2]; dose 3 mg/kg", "result": "12.0 ± 1.4", "unit": "mmol/L"}, {"measurement": "Blood glucose (mmol/L) 90 min", "setting": "db/db mice [2]; dose 3 mg/kg", "result": "9.9 ± 0.8", "unit": "mmol/L"}, {"measurement": "Blood glucose (mmol/L) 120 min", "setting": "db/db mice [2]; dose 3 mg/kg", "result": "9.1 ± 0.6", "unit": "mmol/L"}, {"measurement": "AUC0-2 h reduction rate (%)", "setting": "db/db mice [2]; dose 3 mg/kg", "result": 36.1, "unit": "%"}, {"measurement": "Total sugar excretion", "setting": "C57BL/6J mice; oral 1 mg/kg", "result": "258.20 ± 81.71", "unit": "mg/100 g"}, {"measurement": "Urine concentration", "setting": "C57BL/6J mice; oral 1 mg/kg", "result": "142.82 ± 45.20", "unit": "mmol/L"}, {"measurement": "Urine volume", "setting": "C57BL/6J mice; oral 1 mg/kg", "result": "2.3 ± 0.7", "unit": "mL"}, {"measurement": "Total sugar excretion", "setting": "C57BL/6J mice; oral 3 mg/kg", "result": "315.49 ± 99.84", "unit": "mg/100 g"}, {"measurement": "Urine concentration", "setting": "C57BL/6J mice; oral 3 mg/kg", "result": "177.86 ± 56.29", "unit": "mmol/L"}, {"measurement": "Urine volume", "setting": "C57BL/6J mice; oral 3 mg/kg", "result": "2.3 ± 0.7", "unit": "mL"}, {"measurement": "fasting blood glucose week 1", "setting": "db/db mice [3]; 1 mg/kg once daily oral", "result": "9.4 ± 0.6", "unit": "mmol/L"}, {"measurement": "fasting blood glucose week 2", "setting": "db/db mice [3]; 1 mg/kg once daily oral", "result": "9.0 ± 0.6", "unit": "mmol/L"}, {"measurement": "fasting blood glucose week 3", "setting": "db/db mice [3]; 1 mg/kg once daily oral", "result": "10.0 ± 1.0", "unit": "mmol/L"}, {"measurement": "fasting blood glucose week 4", "setting": "db/db mice [3]; 1 mg/kg once daily oral", "result": "9.7 ± 0.7", "unit": "mmol/L"}, {"measurement": "fasting blood glucose Pre", "setting": "db/db mice [3]; 1 mg/kg once daily oral", "result": "14.0 ± 1.0", "unit": "mmol/L"}, {"measurement": "fasting blood glucose week 1", "setting": "db/db mice [3]; 3 mg/kg once daily oral", "result": "8.1 ± 0.6", "unit": "mmol/L"}, {"measurement": "fasting blood glucose week 2", "setting": "db/db mice [3]; 3 mg/kg once daily oral", "result": "7.7 ± 0.6", "unit": "mmol/L"}, {"measurement": "fasting blood glucose week 3", "setting": "db/db mice [3]; 3 mg/kg once daily oral", "result": "8.6 ± 0.4", "unit": "mmol/L"}, {"measurement": "fasting blood glucose week 4", "setting": "db/db mice [3]; 3 mg/kg once daily oral", "result": "7.8 ± 0.4", "unit": "mmol/L"}, {"measurement": "fasting blood glucose Pre", "setting": "db/db mice [3]; 3 mg/kg once daily oral", "result": "13.8 ± 1.2", "unit": "mmol/L"}, {"measurement": "Hypoglycemic rate % week 1", "setting": "db/db mice [3]; 1 mg/kg once daily oral", "result": 30.3, "unit": "%"}, {"measurement": "Hypoglycemic rate % week 2", "setting": "db/db mice [3]; 1 mg/kg once daily oral", "result": 59.0, "unit": "%"}, {"measurement": "Hypoglycemic rate % week 3", "setting": "db/db mice [3]; 1 mg/kg once daily oral", "result": 43.9, "unit": "%"}, {"measurement": "Hypoglycemic rate % week 4", "setting": "db/db mice [3]; 1 mg/kg once daily oral", "result": 39.5, "unit": "%"}, {"measurement": "Hypoglycemic rate % week 1", "setting": "db/db mice [3]; 3 mg/kg once daily oral", "result": 39.8, "unit": "%"}, {"measurement": "Hypoglycemic rate % week 2", "setting": "db/db mice [3]; 3 mg/kg once daily oral", "result": 65.1, "unit": "%"}, {"measurement": "Hypoglycemic rate % week 3", "setting": "db/db mice [3]; 3 mg/kg once daily oral", "result": 51.6, "unit": "%"}, {"measurement": "Hypoglycemic rate % week 4", "setting": "db/db mice [3]; 3 mg/kg once daily oral", "result": 51.0, "unit": "%"}]}
